Values of other authors as cited in PMC12697872, “Rethinking the AI Paradigm for Solubility Prediction of Drug‑Like Compounds with Dual‐Perspective Modeling and Experimental Validation” (Advanced Science, 2025).

Settings: experimental aqueous solubility as logS, sheet "DrugBank" of Supplement 2; ref DrugBank; cited from earlier work

Going from `CC(C)[C@H](N)C(=O)O` [Valine] to `CC(C(=O)O)c1ccc(-c2ccccc2)c(F)c1` (stereo not shown) [Flurbiprofen], the ex_logS falls from -0.3016 to -4.485.

First: CCN(CC)C(=O)N1CCN(C)CC1 [Diethylcarbamazine]
Second: CCCNC(C)C(=O)Nc1ccccc1C (stereo not shown) [Prilocaine]
The ex_logS of the first is higher: -0.4954 for the first, -2.61 for the second.

`CC=CC1=C(C(=O)O)N2C(=O)[C@@H](NC(=O)[C@H](N)c3ccc(O)cc3)[C@H]2SC1` [Cefprozil] and `CO[C@@]1(NC(=O)CSCC#N)C(=O)N2C(C(=O)O)=C(CSc3nnnn3C)CS[C@@H]21` [Cefmetazole] are within 0.2 log units of each other in ex_logS: -3.85 for the first, -3.699 for the second.

First: NS(=O)(=O)c1cc2c(cc1Cl)N=C(CSCc1ccccc1)NS2(=O)=O [Benzthiazide]
Second: CCOC(=O)c1cncn1[C@H](C)c1ccccc1 [Etomidate]
The ex_logS of the first is lower: -4.686 for the first, -3.587 for the second.

`Nc1ccn([C@H]2CC[C@@H](CO)O2)c(=O)n1` [Zalcitabine] and `Nc1ccn([C@@H]2CS[C@H](CO)O2)c(=O)n1` [Lamivudine] are within 0.2 log units of each other in ex_logS: -0.4416 for the first, -0.5152 for the second.

First: O=c1[nH]cnc2nc[nH]c12 [Hypoxanthine]
Second: NC(=O)c1cccnc1 [Nicotinamide]
The ex_logS of the first is lower: -2.2888 for the first, 0.6122 for the second.

Compared with `O=C(O)c1ccccc1Nc1cccc(C(F)(F)F)c1` [Flufenamic acid], `COc1ccc(C2C(=O)c3ccccc3C2=O)cc1` [Anisindione] is higher in ex_logS: -4.4905 for the first, -3.5 for the second.

Going from `C[C@]1(Cn2ccnn2)[C@H](C(=O)O)N2C(=O)C[C@H]2S1(=O)=O` [Tazobactam] to `CCCC(C)(COC(N)=O)COC(N)=O` [Meprobamate], the ex_logS falls from -0.7786 to -1.667.

Compared with `NC(=O)CCC/N=C(\c1ccc(Cl)cc1)c1cc(F)ccc1O` [Progabide], `CP(=O)(O)C1=CCNCC1` [TPMPA] is higher in ex_logS: -3.674 for the first, -1 for the second.

Same assay, conditions: experimental aqueous solubility as logS, sheet "DrugBank"; ref DrugBank database; cited from earlier work

Going from `CCC(c1ccccc1)c1c(O)c2ccccc2oc1=O` (stereo not shown) [Phenprocoumon] to `Nc1nc(CC(=O)Nc2ccc(CCNC[C@H](O)c3ccccc3)cc2)cs1` [Mirabegron], the ex_logS rises from -4.337 to -3.684.

First: COc1cc2c(Nc3ccc(Br)cc3F)ncnc2cc1OCC1CCN(C)CC1 [Vandetanib]
Second: CN1CCN(C(=O)OC2c3nccnc3C(=O)N2c2ccc(Cl)cn2)CC1 (stereo not shown) [Zopiclone]
The ex_logS of the first is lower: -4.774 for the first, -3.411 for the second.

First: Cc1ncc(CO)c(CO)c1O [Pyridoxine]
Second: Nc1nc2c(ncn2CCC(CO)CO)c(=O)[nH]1 [Penciclovir]
The ex_logS of the first is higher: 0.1141 for the first, -2.173 for the second.

Going from `C[C@H](Cn1cnc2c(N)ncnc21)OCP(=O)(O)O` [Tenofovir] to `Nc1ncnc2c1ncn2[C@@H]1O[C@H](COP(=O)(O)OP(=O)(O)OP(=O)(O)O)[C@@H](O)[C@H]1O` [ATP], the ex_logS rises from -1.3311 to 0.2948.

First: CC[C@H](C)C(=O)O[C@H]1C[C@@H](C)C=C2C=C[C@H](C)[C@H](CC[C@@H]3C[C@@H](O)CC(=O)O3)[C@H]21 [Lovastatin]
Second: CC(=O)OCC1=C(C(=O)O)N2C(=O)[C@@H](NC(=O)CSc3ccncc3)[C@H]2SC1 [Cefapirin]
The ex_logS of the first is lower: -6.0049 for the first, -2.614 for the second.

First: Nc1nc2c(ncn2COCCO)c(=O)[nH]1 [Acyclovir]
Second: Cn1c(=O)c2[nH]cnc2n(C)c1=O [Aminophylline]
The ex_logS of the first is lower: -2.203 for the first, -0.3227 for the second.

Going from `N[C@@H](CSCC(=O)O)C(=O)O` [Carbocisteine] to `N[C@@H](Cc1cc(I)c(Oc2cc(I)c(O)c(I)c2)c(I)c1)C(=O)O` [Levothyroxine], the ex_logS falls from -2.0492 to -3.869.

Going from `Nc1ccc(S(=O)(=O)Nc2nccs2)cc1` [Sulfathiazole] to `Nc1nnc(-c2cccc(Cl)c2Cl)c(N)n1` [Lamotrigine], the ex_logS falls from -2.835 to -3.178.

First: CCOc1ccc(Nc2ccc(/C(=C3C=C/C(=[N+](/CC)Cc4cccc(S(=O)(=O)[O-])c4)C=C/3C)c3ccc(N(CC)Cc4cccc(S(=O)(=O)O)c4)cc3C)cc2)cc1 [Brilliant blue G]
Second: CN(C)CCCN1c2ccccc2CCc2ccccc21 [Imipramine]
The ex_logS of the first is higher: -2.931 for the first, -4.188 for the second.

In the case of `CCC1(CC)C(=O)NCC(C)C1=O` (stereo not shown) [Methyprylon], the ex_logS is listed as -1.202.
